# Legend:
# rat parathyroid glands = experiment: Micrographic analysis (light and electron microscopy) of rat parathyroid glands; format: in vivo
# Excerpt: Electron photomicrographs of the right parathyroid gland from two control rats sacrificed on Day 13 (Nos. 26F and 29F), two control rats sacrificed on Day 29 (Nos. 39F and 40F) and two Formula 1-dosed rats sacrificed on Day 29 (Nos. 76F and 77F) were examined for ultrastructural changes. […] A single rounded parathyroid epithelial cell in animal No. 77F appeared apoptotic with condensed chromatin and intact mitochondria and contained numerous vesicles similar to those previously described. The apoptotic cell is consistent with the single cell necrosis observed at the light microscopic level.
# Female Rats [1] = experiment: One-month exploratory nephrotoxicity study in female rats: serum ADH; format: in vivo, rat; settings: for Mean serum ADH: female rats, 180 mg/kg daily
# Excerpt: (§1) A study was undertaken to assess the potential nephrotoxicity of the compound of Formula 1 in rats. The rats were 6 week old females weighing 120.7 to 173.5 g at dosing initiation.
# (§2) The study design is summarized below in Tables 1-3: […]
# Female Rats [2] = experiment: One-month exploratory nephrotoxicity study in female rats: urine volume and osmolality; format: in vivo, rat; settings: for Mean urine osmolality / Mean urine volume: female rats, 180 mg/kg daily
# Excerpt: as §1, §2
# Female Rats [3] = experiment: One-month exploratory nephrotoxicity study in female rats: urine calcium and phosphorus excretion; format: in vivo, rat; settings: for Mean calcium excretion / Mean phosphorus excretion: female rats, 180 mg/kg daily
# Excerpt: as §1, §2
# Female Rats [4] = experiment: One-month exploratory nephrotoxicity study in female rats: serum PTH; format: in vivo, rat; settings: for Mean serum PTH: female rats, 180 mg/kg daily
# Excerpt: as §1, §2
# Ras-3T3 tumors = settings: mice bearing Ras-3T3 tumors with hypercalcemia (MAH); cited from earlier work
# [5] = target: Farnesyl Protein Transferase (FPT) (Homo sapiens, UniProt P49356); settings: cited from earlier work
# [6] = electron photomicrographs, dosed rats
# [7] = electron photomicrographs, two dosed rats sacrificed on Day 29
# [8] = within 6 days of dosing at 180 mg/kg, rats
smiles,measurement,setting,value
NC(=O)N1CCC(CC(=O)N2CCC(C3c4ncc(Br)cc4CCc4cc(Cl)cc(Br)c43)CC2)CC1 (centres unmarked) [Formula 1],"changes indicating chronic stimulation of parathyroid (rough endoplasmic reticulum, Golgi apparatus)",rat parathyroid glands; [6],no changes indicating chronic stimulation
same,exhaustion vacuoles in parathyroid cells,rat parathyroid glands; [6],no evidence of exhaustion vacuoles
same,Ultrastructure of parathyroid chief cells: cell borders,rat parathyroid glands; [7],"less conspicuous cell borders with fewer, less distinctive cytoplasmic projections"
same,Ultrastructure of parathyroid chief cells: cytoplasm content,rat parathyroid glands; [7],"numerous, generally membrane-bound, vesicles"
same,number of myeloid bodies and fat globules in parathyroid cells,rat parathyroid glands; [7],minimally increased
same,Microscopic evaluation of the parathyroid glands,rat parathyroid glands; rats dosed with 180 mg/kg,cytoplasmic vacuolation
same,Mean serum ADH,Female Rats [1]; Day 2,350 pg/mL
same,Mean serum ADH,Female Rats [1]; Day 6,513 pg/mL
same,Mean serum ADH,Female Rats [1]; Day 13,547 pg/mL
same,Mean serum ADH,"Female Rats [1]; Day 29, water consumption had increased at this timepoint",616^1 pg/ml
same,antidiuretic hormone (ADH) concentrations (change vs control),Female Rats [1]; rats dosed at 180 mg/kg,increases
same,Mean urine osmolality,Female Rats [2]; Day 2,646 mOsm/kg
same,Mean urine volume,Female Rats [2]; Day 2,124 ml/kg/24 hours
same,Mean urine osmolality,Female Rats [2]; Day 6,646 mOsm/kg
same,Mean urine volume,Female Rats [2]; Day 6,195 ml/kg/24 hours
same,Mean urine osmolality,Female Rats [2]; Day 13,655 mOsm/kg
same,Mean urine volume,Female Rats [2]; Day 13,177 ml/kg/24 hours
same,Mean urine osmolality,Female Rats [2]; Day 29,606 mOsm/kg
same,Mean urine volume,Female Rats [2]; Day 29,166 ml/kg/24 hours
same,"condition suggested by urine osmolality, urine volume and ADH changes",Female Rats [2]; rats dosed at 180 mg/kg,nephrogenic diabetes insipidus
same,urine osmolality (change vs control),Female Rats [2]; rats dosed at 180 mg/kg,Decreases
same,urine volume (change vs control),Female Rats [2]; rats dosed at 180 mg/kg,increases
same,Mean calcium excretion,"Female Rats [3]; Day 2, urine",5.65 mg/kg/24 hours
same,Mean phosphorus excretion,"Female Rats [3]; Day 2, urine",55.9 mg/kg/24 hours
same,Mean calcium excretion,"Female Rats [3]; Day 6, urine",33 mg/kg/24 hours
same,Mean phosphorus excretion,"Female Rats [3]; Day 6, urine",13.5 mg/kg/24 hours
same,Mean calcium excretion,"Female Rats [3]; Day 13, urine",20.7 mg/kg/24 hours
same,Mean phosphorus excretion,"Female Rats [3]; Day 13, urine",12.1 mg/kg/24 hours
same,Mean calcium excretion,"Female Rats [3]; Day 29, urine",19.2 mg/kg/24 hours
same,Mean phosphorus excretion,"Female Rats [3]; Day 29, urine",7.3 mg/kg/24 hours
same,calcium excretion in the urine (change vs control),Female Rats [3]; [8],increased
same,phosphorus excretion (change vs control),Female Rats [3]; [8],decreased
same,Mean serum PTH,Female Rats [4]; Day 2,60 ng/mL
same,Mean serum PTH,Female Rats [4]; Day 6,51 ng/mL
same,Mean serum PTH,Female Rats [4]; Day 13,68 ng/mL
same,Mean serum PTH,Female Rats [4]; Day 29,44 ng/mL
same,serum PTH (change vs control),Female Rats [4]; rats dosed at 180 mg/kg,decrease
same,rats evaluated with lower PTH serum concentrations than the control rats,"Female Rats [4]; within 28 days, 180 mg/kg",5 out of 5
COC(=O)[C@H](CCSC)NC(=O)[C@H](/C=C\[C@@H](/C=C/[C@@H](N)CS)C(C)C)Cc1ccccc1 [Formula B-1086],serum PTHRP levels,Ras-3T3 tumors,reduction
same,serum calcium,Ras-3T3 tumors,normalization
NC(=O)N1CCC(CC(=O)N2CCC([C@H]3c4ncc(Br)cc4CCc4cc(Cl)cc(Br)c43)CC2)CC1 [SCH66336],FPT mediated farnesylation of the Ras protein,[5],inhibit
